# Assay results from paper PMC4476799, “Englerin A Agonizes the TRPC4/C5 Cation Channels to Inhibit Tumor Cell Line Proliferation” (PLoS ONE, 2015).
# Like-named read-outs stand apart in the source and are kept apart here.
# Test system: cancer cell lines from the cancer cell line encyclopedia (CCLE)
# Assay: Cell line profiling (CLiP) proliferation experiment
# Type: cell-based
# Parameters: key to Compound Activity (1-inactive;2-active): 1-inactive; 2-active; ACTIVITY_AREA: scale not given here; AMAX: unit not given here
# Details: for IC50: read-out: Crossing Point; for EC50: read-out: Inflection Point
# Protocol: Compound profiling experiment and data analysis was performed as previously described. Data was imported and plotted using the Tibco Spotfire DXP application. Lines were categorized as sensitive, intermediate and refractory as follows: Amax<-40 & Inflection Point <2 ~ Sensitive, Amax>-20 & Inflection Point >10 ~ Refractory, all else were called Intermediate. Cancer Cell line HG-U133 Plus 2 data was processed and normalized as described. […] Five sets of refractory cell lines were generated from the pool of refractory cell lines trying to match the lineage composition of the set of sensitive cell lines. The limma package was used as previously described to perform the statistical comparison.
# [1] = UM-UC-3 cell line, urinary_tract, transitional_cell_carcinoma
# [2] = VM-CUB1 cell line, urinary_tract, transitional_cell_carcinoma
# [3] = VMRC-RCW cell line, kidney, renal_cell_carcinoma
# [4] = VMRC-RCZ cell line, kidney, renal_cell_carcinoma
# [5] = WSU-DLCL2 cell line, haematopoietic_and_lymphoid_tissue, diffuse_large_B_cell_lymphoma
# [6] = YKG1 cell line, central_nervous_system, astrocytoma_Grade_IV
# [7] = Z-138 cell line, haematopoietic_and_lymphoid_tissue, mantle_cell_lymphoma
# [8] = ZR-75-1 cell line, breast, ductal_carcinoma
# [9] = cell line 8-MG-BA, central_nervous_system, astrocytoma_Grade_IV
# [10] = cell line 697, haematopoietic_and_lymphoid_tissue, acute_lymphoblastic_leukaemia
# [11] = cell line 769-P, kidney, clear_cell_renal_cell_carcinoma
# [12] = cell line 786-O, kidney, clear_cell_renal_cell_carcinoma
# [13] = cell line 8305C, thyroid, anaplastic_carcinoma
# [14] = cell line 23132/87, stomach, adenocarcinoma
# [15] = cell line A4/Fuk, haematopoietic_and_lymphoid_tissue, diffuse_large_B_cell_lymphoma
# [16] = cell line A-204, soft_tissue, NS
# [17] = cell line BDCM, haematopoietic_and_lymphoid_tissue, acute_lymphoblastic_B_cell_leukaemia
# [18] = cell line BHY, upper_aerodigestive_tract, squamous_cell_carcinoma
# [19] = cell line BICR 6, upper_aerodigestive_tract, squamous_cell_carcinoma
# [20] = cell line BICR 22, upper_aerodigestive_tract, squamous_cell_carcinoma
# [21] = cell line CAL-29, urinary_tract, transitional_cell_carcinoma
# [22] = cell line DOHH-2, haematopoietic_and_lymphoid_tissue
# [23] = cell line EB1, haematopoietic_and_lymphoid_tissue
# [24] = cell line EB2, haematopoietic_and_lymphoid_tissue
# [25] = cell line EM-2 (haematopoietic_and_lymphoid_tissue, blast_phase_chronic_myeloid_leukaemia)
# [26] = cell line EM-2, haematopoietic_and_lymphoid_tissue
# [27] = cell line EOL-1, haematopoietic_and_lymphoid_tissue
# [28] = cell line FaDu, upper_aerodigestive_tract
compound,measurement,setting,value
CC(C)[C@@]12C[C@@H](O)[C@@](C)(O1)[C@@H]1CC[C@@H](C)[C@H]1[C@@H]2OC(=O)/C=C/c1ccccc1 [Englerin B],ACTIVITY_AREA,[1],37.41
same,AMAX,[1],-54.71
same,RESPONSE,[1],INTERMEDIATE
same,ACTIVITY_AREA,[2],96.55
same,AMAX,[2],-58.31
same,RESPONSE,[2],INTERMEDIATE
same,IC50,VMRC-RCW (kidney),> 30 µM
same,ACTIVITY_AREA,[3],10.22
same,AMAX,[3],-25.65
same,IC50,[3],> 30 µM
same,IC50,VMRC-RCZ (kidney),> 30 µM
same,ACTIVITY_AREA,[4],26.25
same,AMAX,[4],-46.92
same,RESPONSE,[4],INTERMEDIATE
same,IC50,[4],> 30 µM
same,IC50,"WM983B, WM-983B (skin)",> 30 µM
same,IC50,"WM983B, WM-983B cell line, skin, NS",> 30 µM
same,ACTIVITY_AREA,"WM1799 cell line, skin, NS",44.8
same,AMAX,"WM1799 cell line, skin, NS",-38.05
same,RESPONSE,"WM1799 cell line, skin, NS",INTERMEDIATE
same,IC50,WM-88 (skin),> 30 µM
same,ACTIVITY_AREA,"WM-88 cell line, skin, NS",55.16
same,AMAX,"WM-88 cell line, skin, NS",-34.98
same,RESPONSE,"WM-88 cell line, skin, NS",INTERMEDIATE
same,IC50,"WM-88 cell line, skin, NS",> 30 µM
same,ACTIVITY_AREA,"WM-115 cell line, skin, NS",73.29
same,AMAX,"WM-115 cell line, skin, NS",-15.29
same,RESPONSE,"WM-115 cell line, skin, NS",REFRACTORY
same,ACTIVITY_AREA,"WM-266-4 cell line, skin, NS",31.57
same,AMAX,"WM-266-4 cell line, skin, NS",-38.36
same,RESPONSE,"WM-266-4 cell line, skin, NS",INTERMEDIATE
same,ACTIVITY_AREA,"WM-793 cell line, skin, NS",26.94
same,AMAX,"WM-793 cell line, skin, NS",-46.79
same,RESPONSE,"WM-793 cell line, skin, NS",INTERMEDIATE
same,ACTIVITY_AREA,"WM-983B cell line, skin, NS",63.66
same,AMAX,"WM-983B cell line, skin, NS",-43.12
same,RESPONSE,"WM-983B cell line, skin, NS",INTERMEDIATE
same,IC50,"WM-1799, WM1799 (skin)",> 30 µM
same,IC50,"WM-1799, WM1799 cell line, skin, NS",> 30 µM
same,IC50,WS1 (skin),> 30 µM
same,IC50,"WS1, WS1 cell line, skin",> 30 µM
same,ACTIVITY_AREA,"WS1 cell line, skin",21.77
same,AMAX,"WS1 cell line, skin",-26.6
same,RESPONSE,"WS1 cell line, skin",INTERMEDIATE
same,ACTIVITY_AREA,[5],47.3
same,AMAX,[5],-92.11
same,RESPONSE,[5],INTERMEDIATE
same,ACTIVITY_AREA,"YAPC cell line, pancreas, NS",25.5
same,AMAX,"YAPC cell line, pancreas, NS",-44.67
same,RESPONSE,"YAPC cell line, pancreas, NS",INTERMEDIATE
same,ACTIVITY_AREA,[6],26.45
same,AMAX,[6],-20.02
same,RESPONSE,[6],INTERMEDIATE
same,ACTIVITY_AREA,"YMB-1 cell line, breast, NS",29.44
same,AMAX,"YMB-1 cell line, breast, NS",-63.02
same,RESPONSE,"YMB-1 cell line, breast, NS",INTERMEDIATE
same,IC50,"YMB-1 cell line, breast, NS",21 µM
same,EC50,"YMB-1 cell line, breast, NS",21 µM
same,ACTIVITY_AREA,[7],90.79
same,AMAX,[7],-65.74
same,RESPONSE,[7],INTERMEDIATE
same,ACTIVITY_AREA,[8],42.06
same,AMAX,[8],-53.16
same,Compound Activity (1-inactive;2-active),call per compound,1
same,Compound Activity (1-inactive;2-active),"call per compound, repeated on every line",1
same,Compound Activity (1-inactive;2-active),call printed on every cell-line row,1
same,ACTIVITY_AREA,[9],36.6
same,AMAX,[9],-52.73
same,RESPONSE,[9],INTERMEDIATE
same,ACTIVITY_AREA,"cell line 59M, ovary, NS",26.55
same,AMAX,"cell line 59M, ovary, NS",-38.54
same,RESPONSE,"cell line 59M, ovary, NS",INTERMEDIATE
same,IC50,"cell line 59M, ovary, NS",> 30 µM
same,IC50,cell line 59M,> 30 µM
same,IC50,[10],18.6 µM
same,EC50,[10],18.6 µM
same,ACTIVITY_AREA,[11],13.6
same,AMAX,[11],-49.16
same,RESPONSE,[11],INTERMEDIATE
same,ACTIVITY_AREA,[12],46.1
same,AMAX,[12],-38.05
same,RESPONSE,[12],INTERMEDIATE
same,Compound Activity (1-inactive;2-active),"cell line 1321N1 (central_nervous_system, astrocytoma)",1
same,ACTIVITY_AREA,[13],19.13
same,AMAX,[13],-42.05
same,RESPONSE,[13],INTERMEDIATE
same,ACTIVITY_AREA,[14],152.84
same,AMAX,[14],-72.44
same,RESPONSE,[14],INTERMEDIATE
same,IC50,[14],15.3 µM
same,EC50,[14],15.3 µM
same,IC50,[15],18.1 µM
same,EC50,[15],18.1 µM
same,ACTIVITY_AREA,[16],22.22
same,AMAX,[16],-45.81
same,RESPONSE,[16],INTERMEDIATE
same,IC50,"cell line AGS, stomach, adenocarcinoma",5.71 µM
same,IC50,[17],16.9 µM
same,EC50,[17],16.9 µM
same,IC50,[18],23.5 µM
same,EC50,[18],9.33 µM
same,IC50,[19],23 µM
same,EC50,[19],23 µM
same,IC50,"cell line BICR 16, upper_aerodigestive_tract, squamous_cell_carcinoma",9.26 µM
same,IC50,[20],18.8 µM
same,EC50,[20],15 µM
same,IC50,"cell line C32, skin, NS",> 30 µM
same,IC50,[21],15.9 µM
same,EC50,[21],13.1 µM
same,Compound Activity (1-inactive;2-active),"cell line COLO-800 (skin, NS)",1
same,Compound Activity (1-inactive;2-active),"cell line COV504 (ovary, NS)",1
same,Compound Activity (1-inactive;2-active),"cell line Caov-3 (ovary, adenocarcinoma)",1
same,Compound Activity (1-inactive;2-active),"cell line DBTRG-05MG (central_nervous_system, astrocytoma_Grade_IV)",1
same,Compound Activity (1-inactive;2-active),"cell line DLD-1 (large_intestine, adenocarcinoma)",1
same,ACTIVITY_AREA,"cell line DMS 79, lung",49.26
same,AMAX,"cell line DMS 79, lung",-10.4
same,RESPONSE,"cell line DMS 79, lung",REFRACTORY
same,ACTIVITY_AREA,[22],33.67
same,AMAX,[22],-98.82
same,RESPONSE,[22],INTERMEDIATE
same,Compound Activity (1-inactive;2-active),"cell line DU 145 (prostate, NS)",1
same,ACTIVITY_AREA,"cell line DU 145, prostate",176.13
same,AMAX,"cell line DU 145, prostate",-54.93
same,RESPONSE,"cell line DU 145, prostate",INTERMEDIATE
same,Compound Activity (1-inactive;2-active),"cell line DV-90 (lung, adenocarcinoma)",1
same,ACTIVITY_AREA,"cell line DV-90, lung",23.59
same,AMAX,"cell line DV-90, lung",-71.93
same,RESPONSE,"cell line DV-90, lung",INTERMEDIATE
same,ACTIVITY_AREA,[23],13.39
same,AMAX,[23],-56.14
same,RESPONSE,[23],INTERMEDIATE
same,IC50,[23],28.7 µM
same,ACTIVITY_AREA,[24],28.45
same,AMAX,[24],-57.08
same,RESPONSE,[24],INTERMEDIATE
same,IC50,[24],25.8 µM
same,ACTIVITY_AREA,"cell line EBC-1, lung",56.14
same,AMAX,"cell line EBC-1, lung",-53.25
same,RESPONSE,"cell line EBC-1, lung",INTERMEDIATE
same,Compound Activity (1-inactive;2-active),"cell line EFM-19 (breast, ductal_carcinoma)",1
same,ACTIVITY_AREA,"cell line EFM-19, breast",28.98
same,AMAX,"cell line EFM-19, breast",-31.96
same,RESPONSE,"cell line EFM-19, breast",INTERMEDIATE
same,ACTIVITY_AREA,"cell line EFM-192A, breast",78.14
same,AMAX,"cell line EFM-192A, breast",-57.28
same,RESPONSE,"cell line EFM-192A, breast",INTERMEDIATE
same,Compound Activity (1-inactive;2-active),[25],1
same,IC50,[25],> 30 µM
same,ACTIVITY_AREA,[26],14.33
same,AMAX,[26],-44.27
same,RESPONSE,[26],INTERMEDIATE
same,IC50,[26],> 30 µM
same,ACTIVITY_AREA,"cell line EN, endometrium",5.5
same,AMAX,"cell line EN, endometrium",-23.22
same,RESPONSE,"cell line EN, endometrium",INTERMEDIATE
same,IC50,"cell line EN, endometrium",> 30 µM
same,IC50,cell line EN,> 30 µM
same,ACTIVITY_AREA,[27],60.59
same,AMAX,[27],-94.78
same,RESPONSE,[27],INTERMEDIATE
same,ACTIVITY_AREA,"cell line ES-2, ovary",44.96
same,AMAX,"cell line ES-2, ovary",-44.71
same,RESPONSE,"cell line ES-2, ovary",INTERMEDIATE
same,IC50,"cell line ES-2, ovary",> 30 µM
same,IC50,cell line ES-2,> 30 µM
same,ACTIVITY_AREA,"cell line ESS-1, endometrium",41.09
same,AMAX,"cell line ESS-1, endometrium",-72.67
same,RESPONSE,"cell line ESS-1, endometrium",INTERMEDIATE
same,ACTIVITY_AREA,"cell line FU-OV-1, ovary",158.99
same,AMAX,"cell line FU-OV-1, ovary",-69.93
same,RESPONSE,"cell line FU-OV-1, ovary",INTERMEDIATE
same,IC50,"cell line FU-OV-1, ovary",3.19 µM
same,ACTIVITY_AREA,[28],21.14
same,AMAX,[28],-61.31
same,RESPONSE,[28],INTERMEDIATE
same,ACTIVITY_AREA,"cell line G-361, skin",55.99
same,AMAX,"cell line G-361, skin",-32.98
same,RESPONSE,"cell line G-361, skin",INTERMEDIATE
same,ACTIVITY_AREA,"cell line G-401, soft_tissue",47.08
same,AMAX,"cell line G-401, soft_tissue",-74.97
same,RESPONSE,"cell line G-401, soft_tissue",INTERMEDIATE
same,ACTIVITY_AREA,"cell line G-402, soft_tissue",90.01
same,AMAX,"cell line G-402, soft_tissue",-70.25
same,RESPONSE,"cell line G-402, soft_tissue",INTERMEDIATE
